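Growth conditions: 96-well plates. Treatment: test compound, 48 hours, 5 concentrations. Analysis: linear interpolation between bracketing concentrations; unreached endpoints set to highest concentration. At the TGI there is no net growth.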
Experiments:
Assay in all cases: NCI tumour cell line growth inhibition, 48 h
TK-10 renal = system: TK-10 renal
HL-60(TB) leukemia = system: HL-60(TB) leukemia
OVCAR-3 ovarian = system: OVCAR-3 ovarian
SK-OV-3 ovarian = system: SK-OV-3 ovarian
M19-MEL melanoma = system: M19-MEL melanoma
UACC-257 melanoma = system: UACC-257 melanoma
EKVX NSCLC = system: EKVX NSCLC
KM20L2 colon = system: KM20L2 colon
DMS 114 small cell lung = system: DMS 114 small cell lung
SK-MEL-5 melanoma = system: SK-MEL-5 melanoma
NCI-H460 lung = system: NCI-H460 lung
CCRF-CEM leukemia = system: CCRF-CEM leukemia
SR leukemia = system: SR leukemia
NCI-H226 lung = system: NCI-H226 lung
HCT-116 colon = system: HCT-116 colon
UACC-62 melanoma = system: UACC-62 melanoma
OVCAR-4 ovarian = system: OVCAR-4 ovarian
RXF-631 renal = system: RXF-631 renal
OVCAR-5 ovarian = system: OVCAR-5 ovarian
ACHN renal = system: ACHN renal
HT29 colon = system: HT29 colon
MALME-3M melanoma = system: MALME-3M melanoma
HCC-2998 colon = system: HCC-2998 colon
HCT-15 colon = system: HCT-15 colon
SW-620 colon = system: SW-620 colon
SK-MEL-28 melanoma = system: SK-MEL-28 melanoma
DMS 273 small cell lung = system: DMS 273 small cell lung
A549 NSCLC = system: A549 NSCLC
SK-MEL-2 melanoma = system: SK-MEL-2 melanoma
SF-295 CNS = system: SF-295 CNS
786-0 renal = system: 786-0 renal
XF 498 CNS = system: XF 498 CNS
U251 CNS = system: U251 CNS
OVCAR-8 ovarian = system: OVCAR-8 ovarian
HOP-92 NSCLC = system: HOP-92 NSCLC
LOX IMVI melanoma = system: LOX IMVI melanoma
HOP-18 NSCLC = system: HOP-18 NSCLC
COLO 205 colon = system: COLO 205 colon
SNB-19 CNS = system: SNB-19 CNS
LXFL 529 NSCLC = system: LXFL 529 NSCLC
KM12 colon = system: KM12 colon
HOP-62 NSCLC = system: HOP-62 NSCLC
M14 melanoma = system: M14 melanoma
K-562 leukemia = system: K-562 leukemia
NCI-H23 lung = system: NCI-H23 lung
DLD-1 colon = system: DLD-1 colon
CAKI-1 renal = system: CAKI-1 renal
RXF 393 renal = system: RXF 393 renal
SNB-75 CNS = system: SNB-75 CNS
NCI-H522 lung = system: NCI-H522 lung
SN12C renal = system: SN12C renal
SF-268 CNS = system: SF-268 CNS
RPMI-8226 leukemia = system: RPMI-8226 leukemia
IGROV1 ovarian = system: IGROV1 ovarian
A498 renal = system: A498 renal
MOLT-4 leukemia = system: MOLT-4 leukemia
UO-31 renal = system: UO-31 renal
SF-539 CNS = system: SF-539 CNS
SNB-78 CNS = system: SNB-78 CNS

With `COC/N=C(\NC#N)NCOC` the TGI (TK-10 renal) was over 100 µM, the TGI (HL-60(TB) leukemia) was over 100 µM and the TGI (OVCAR-3 ovarian) was over 100 µM. It also gave a TGI (SK-OV-3 ovarian) of over 100 µM, a TGI (M19-MEL melanoma) of over 100 µM and a TGI (UACC-257 melanoma) of over 100 µM. The TGI (EKVX NSCLC) was over 100 µM, the TGI (KM20L2 colon) was over 100 µM and the TGI (DMS 114 small cell lung) was over 72.5 µM. For the same compound, the TGI (SK-MEL-5 melanoma) was over 100 µM, the TGI (NCI-H460 lung) was over 100 µM and the TGI (CCRF-CEM leukemia) was over 100 µM. It also gave a TGI (SR leukemia) of 54.6 µM, a TGI (NCI-H226 lung) of over 100 µM and a TGI (HCT-116 colon) of over 100 µM. The TGI (UACC-62 melanoma) was over 100 µM, the TGI (OVCAR-4 ovarian) was over 100 µM and the TGI (RXF-631 renal) was over 100 µM. The TGI (OVCAR-5 ovarian) was over 100 µM, the TGI (ACHN renal) was over 100 µM and the TGI (HT29 colon) was over 100 µM. It also gave a TGI (MALME-3M melanoma) of over 100 µM, a TGI (HCC-2998 colon) of over 100 µM and a TGI (HCT-15 colon) of over 59.4 µM. For the same compound, the TGI (SW-620 colon) was over 59.7 µM, the TGI (SK-MEL-28 melanoma) was over 100 µM and the TGI (DMS 273 small cell lung) was over 81.5 µM. The TGI (A549 NSCLC) was over 100 µM, the TGI (SK-MEL-2 melanoma) was over 100 µM and the TGI (SF-295 CNS) was over 100 µM. The TGI (786-0 renal) was over 74.6 µM, the TGI (XF 498 CNS) was over 100 µM and the TGI (U251 CNS) was over 100 µM. It also gave a TGI (OVCAR-8 ovarian) of over 100 µM, a TGI (HOP-92 NSCLC) of over 100 µM and a TGI (LOX IMVI melanoma) of over 95.8 µM. For the same compound, the TGI (HOP-18 NSCLC) was over 100 µM, the TGI (COLO 205 colon) was over 85.1 µM and the TGI (SNB-19 CNS) was over 100 µM. It also gave a TGI (LXFL 529 NSCLC) of over 100 µM, a TGI (KM12 colon) of over 100 µM and a TGI (HOP-62 NSCLC) of over 100 µM. For the same compound, the TGI (M14 melanoma) was over 100 µM, the TGI (K-562 leukemia) was over 100 µM and the TGI (NCI-H23 lung) was over 100 µM. For the same compound, the TGI (DLD-1 colon) was over 100 µM, the TGI (CAKI-1 renal) was over 100 µM and the TGI (RXF 393 renal) was over 63.3 µM. The TGI (SNB-75 CNS) was over 100 µM, the TGI (NCI-H522 lung) was over 100 µM and the TGI (SN12C renal) was over 100 µM. The TGI (SF-268 CNS) was over 100 µM, the TGI (RPMI-8226 leukemia) was over 70.8 µM and the TGI (IGROV1 ovarian) was over 100 µM. For the same compound, the TGI (A498 renal) was over 100 µM, the TGI (MOLT-4 leukemia) was over 100 µM and the TGI (UO-31 renal) was over 100 µM. The TGI (SF-539 CNS) was over 100 µM.

In the case of `C#CCN(N=O)C(=O)ON1C(=O)CCC1=O`, the TGI (TK-10 renal) was over 100 µM, the TGI (HL-60(TB) leukemia) was over 100 µM and the TGI (OVCAR-3 ovarian) was over 100 µM. The TGI (SK-OV-3 ovarian) was over 100 µM, the TGI (M19-MEL melanoma) was over 100 µM and the TGI (UACC-257 melanoma) was over 100 µM. It also gave a TGI (EKVX NSCLC) of over 100 µM, a TGI (KM20L2 colon) of over 100 µM and a TGI (DMS 114 small cell lung) of over 100 µM. For the same compound, the TGI (SK-MEL-5 melanoma) was over 100 µM, the TGI (NCI-H460 lung) was over 100 µM and the TGI (CCRF-CEM leukemia) was over 100 µM. For the same compound, the TGI (HCT-116 colon) was over 100 µM, the TGI (UACC-62 melanoma) was over 100 µM and the TGI (OVCAR-4 ovarian) was over 100 µM. The TGI (OVCAR-5 ovarian) was over 100 µM, the TGI (ACHN renal) was over 100 µM and the TGI (HT29 colon) was over 100 µM. For the same compound, the TGI (MALME-3M melanoma) was over 100 µM, the TGI (HCT-15 colon) was over 100 µM and the TGI (SW-620 colon) was over 100 µM. The TGI (SK-MEL-28 melanoma) was over 100 µM, the TGI (DMS 273 small cell lung) was over 100 µM and the TGI (A549 NSCLC) was over 100 µM. For the same compound, the TGI (SK-MEL-2 melanoma) was over 100 µM, the TGI (SF-295 CNS) was over 100 µM and the TGI (786-0 renal) was over 100 µM. The TGI (U251 CNS) was over 100 µM, the TGI (OVCAR-8 ovarian) was over 100 µM and the TGI (HOP-92 NSCLC) was over 100 µM. For the same compound, the TGI (LOX IMVI melanoma) was over 100 µM, the TGI (HOP-18 NSCLC) was over 100 µM and the TGI (SNB-78 CNS) was over 100 µM. It also gave a TGI (COLO 205 colon) of over 100 µM, a TGI (SNB-19 CNS) of over 100 µM and a TGI (LXFL 529 NSCLC) of over 100 µM. For the same compound, the TGI (KM12 colon) was over 100 µM, the TGI (HOP-62 NSCLC) was over 100 µM and the TGI (M14 melanoma) was over 100 µM. The TGI (K-562 leukemia) was over 100 µM, the TGI (NCI-H23 lung) was over 100 µM and the TGI (DLD-1 colon) was over 100 µM. For the same compound, the TGI (RXF 393 renal) was over 100 µM, the TGI (SNB-75 CNS) was over 100 µM and the TGI (NCI-H522 lung) was over 100 µM. For the same compound, the TGI (SN12C renal) was over 100 µM, the TGI (SF-268 CNS) was over 100 µM and the TGI (RPMI-8226 leukemia) was over 100 µM. The TGI (IGROV1 ovarian) was over 100 µM, the TGI (A498 renal) was over 100 µM and the TGI (MOLT-4 leukemia) was over 100 µM. It also gave a TGI (UO-31 renal) of over 100 µM and a TGI (SF-539 CNS) of over 100 µM.
